Measurements published in the supplement of paper PMC7796163.
± gives the uncertainty stated by the source.

Columns and labels:
Assay in all cases: CYP enzyme activity (probe substrate metabolite formation) fold change vs solvent control; higher = stronger induction of CYP activity
Conditions in all cases: HepaRG
CYP1A2 = molecular target: T1, CYP1A2 (UniProt P05177)
T1 sequence (whole entry): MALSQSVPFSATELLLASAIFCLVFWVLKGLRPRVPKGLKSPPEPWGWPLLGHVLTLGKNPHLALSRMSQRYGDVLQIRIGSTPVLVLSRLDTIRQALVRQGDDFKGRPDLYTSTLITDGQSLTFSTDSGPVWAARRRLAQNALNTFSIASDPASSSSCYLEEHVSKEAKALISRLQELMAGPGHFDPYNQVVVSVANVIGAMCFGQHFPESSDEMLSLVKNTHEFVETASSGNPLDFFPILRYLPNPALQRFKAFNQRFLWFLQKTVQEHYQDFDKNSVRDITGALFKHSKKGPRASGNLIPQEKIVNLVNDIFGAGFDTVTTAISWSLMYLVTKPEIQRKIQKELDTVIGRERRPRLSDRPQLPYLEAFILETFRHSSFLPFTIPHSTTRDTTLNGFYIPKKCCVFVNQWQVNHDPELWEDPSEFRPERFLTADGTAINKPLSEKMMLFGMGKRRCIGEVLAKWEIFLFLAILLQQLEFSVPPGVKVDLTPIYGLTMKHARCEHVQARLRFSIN
Method: (§1)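 Differentiated HepaRG cells were treated with 1, 5 or 10 µM of each PAH (0.5% DMSO) for 12, 24 or 48 h, then incubated for 3 h at 37 °C with a cocktail of isoform-specific CYP substrates (phenacetin for CYP1A2, bupropion for CYP2B6, amodiaquine for CYP2C8, tolbutamide for CYP2C9, mephenytoin for CYP2C19, propafenone for CYP2D6, atorvastatin for CYP3A4). Metabolite formation was quantified by LC-MS as a measure of CYP activity and reported as fold change over solvent control (mean ± SD, n=3). Values below the LLOQ were set to half the LLOQ.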

CYP2B6 = molecular target: T2, CYP2B6 (UniProt P20813)
T2 sequence (whole entry): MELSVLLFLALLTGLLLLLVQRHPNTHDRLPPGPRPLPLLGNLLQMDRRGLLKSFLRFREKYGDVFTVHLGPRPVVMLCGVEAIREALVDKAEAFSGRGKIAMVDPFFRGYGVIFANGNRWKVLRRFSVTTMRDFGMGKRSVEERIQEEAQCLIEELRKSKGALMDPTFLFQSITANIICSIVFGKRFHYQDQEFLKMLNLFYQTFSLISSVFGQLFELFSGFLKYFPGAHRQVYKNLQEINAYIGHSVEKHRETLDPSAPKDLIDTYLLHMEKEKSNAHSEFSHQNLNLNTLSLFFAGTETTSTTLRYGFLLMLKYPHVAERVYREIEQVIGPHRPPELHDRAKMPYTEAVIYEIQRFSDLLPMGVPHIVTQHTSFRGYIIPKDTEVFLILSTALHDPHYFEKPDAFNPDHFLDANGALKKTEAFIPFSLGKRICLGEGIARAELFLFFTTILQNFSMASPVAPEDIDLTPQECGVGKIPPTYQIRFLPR
Method: as §1

CYP2C19 = CYP2C19 (UniProt P33261)
Method: as §1

CYP2C8 = molecular target: T3, CYP2C8 (UniProt P10632)
T3 sequence (whole entry): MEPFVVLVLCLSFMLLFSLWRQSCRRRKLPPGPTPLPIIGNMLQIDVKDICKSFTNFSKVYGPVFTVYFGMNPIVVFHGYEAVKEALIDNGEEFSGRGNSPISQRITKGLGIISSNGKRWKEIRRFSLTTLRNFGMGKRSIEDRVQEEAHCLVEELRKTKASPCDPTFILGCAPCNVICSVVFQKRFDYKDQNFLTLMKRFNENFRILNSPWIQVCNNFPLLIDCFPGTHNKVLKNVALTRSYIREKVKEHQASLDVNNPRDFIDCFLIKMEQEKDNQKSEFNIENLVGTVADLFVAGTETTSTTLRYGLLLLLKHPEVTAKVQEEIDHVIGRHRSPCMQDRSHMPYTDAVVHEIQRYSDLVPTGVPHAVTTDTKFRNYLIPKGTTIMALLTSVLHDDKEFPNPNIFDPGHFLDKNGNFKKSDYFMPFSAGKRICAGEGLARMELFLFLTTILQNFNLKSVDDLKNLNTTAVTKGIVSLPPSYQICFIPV
Method: as §1

CYP2C9 = CYP2C9 (UniProt P11712)
Method: as §1

CYP2D6 = CYP2D6 (UniProt P10635)
Method: as §1

CYP3A4 = CYP3A4 (UniProt P08684)
Method: as §1

CYP2C9, sequence (P11712 whole entry): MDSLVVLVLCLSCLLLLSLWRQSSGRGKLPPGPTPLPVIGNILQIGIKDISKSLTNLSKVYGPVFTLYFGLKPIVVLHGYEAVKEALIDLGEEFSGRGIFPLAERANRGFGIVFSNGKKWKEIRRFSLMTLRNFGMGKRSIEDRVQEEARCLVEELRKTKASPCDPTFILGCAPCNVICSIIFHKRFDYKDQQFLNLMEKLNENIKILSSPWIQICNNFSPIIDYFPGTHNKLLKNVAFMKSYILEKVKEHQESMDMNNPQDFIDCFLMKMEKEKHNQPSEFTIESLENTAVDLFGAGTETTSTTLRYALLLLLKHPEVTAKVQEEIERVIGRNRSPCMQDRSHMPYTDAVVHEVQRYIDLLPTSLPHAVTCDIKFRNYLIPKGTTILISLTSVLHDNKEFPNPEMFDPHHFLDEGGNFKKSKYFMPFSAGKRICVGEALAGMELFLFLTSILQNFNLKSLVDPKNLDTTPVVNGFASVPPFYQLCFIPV
CYP2C19, sequence (P33261 whole entry): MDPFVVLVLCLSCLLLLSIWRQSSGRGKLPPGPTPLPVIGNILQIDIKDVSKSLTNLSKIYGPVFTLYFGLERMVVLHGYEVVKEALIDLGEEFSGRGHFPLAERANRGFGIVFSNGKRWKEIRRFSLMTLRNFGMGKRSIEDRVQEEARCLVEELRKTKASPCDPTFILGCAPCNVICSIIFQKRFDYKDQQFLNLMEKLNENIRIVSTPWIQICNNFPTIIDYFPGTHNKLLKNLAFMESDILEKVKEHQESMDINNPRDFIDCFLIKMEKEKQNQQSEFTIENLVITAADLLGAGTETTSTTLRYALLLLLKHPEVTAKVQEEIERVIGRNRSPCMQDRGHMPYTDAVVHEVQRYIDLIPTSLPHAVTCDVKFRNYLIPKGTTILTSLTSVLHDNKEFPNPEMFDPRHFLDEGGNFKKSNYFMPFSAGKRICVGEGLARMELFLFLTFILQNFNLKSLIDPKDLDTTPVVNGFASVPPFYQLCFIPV
CYP3A4, sequence (P08684 whole entry): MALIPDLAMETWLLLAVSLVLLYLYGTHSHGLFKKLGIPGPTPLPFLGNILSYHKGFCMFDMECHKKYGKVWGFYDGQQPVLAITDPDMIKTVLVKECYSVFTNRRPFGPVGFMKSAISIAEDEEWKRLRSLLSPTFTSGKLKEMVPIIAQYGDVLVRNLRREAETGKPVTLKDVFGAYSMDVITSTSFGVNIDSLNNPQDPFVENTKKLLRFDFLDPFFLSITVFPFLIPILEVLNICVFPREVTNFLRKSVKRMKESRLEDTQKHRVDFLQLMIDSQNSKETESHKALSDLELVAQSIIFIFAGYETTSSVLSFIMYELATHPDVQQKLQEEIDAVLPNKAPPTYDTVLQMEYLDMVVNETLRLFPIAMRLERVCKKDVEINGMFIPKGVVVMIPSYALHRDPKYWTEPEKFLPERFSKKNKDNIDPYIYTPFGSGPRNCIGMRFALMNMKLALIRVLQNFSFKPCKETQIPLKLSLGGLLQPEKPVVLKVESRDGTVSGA
CYP2D6, sequence (P10635 whole entry): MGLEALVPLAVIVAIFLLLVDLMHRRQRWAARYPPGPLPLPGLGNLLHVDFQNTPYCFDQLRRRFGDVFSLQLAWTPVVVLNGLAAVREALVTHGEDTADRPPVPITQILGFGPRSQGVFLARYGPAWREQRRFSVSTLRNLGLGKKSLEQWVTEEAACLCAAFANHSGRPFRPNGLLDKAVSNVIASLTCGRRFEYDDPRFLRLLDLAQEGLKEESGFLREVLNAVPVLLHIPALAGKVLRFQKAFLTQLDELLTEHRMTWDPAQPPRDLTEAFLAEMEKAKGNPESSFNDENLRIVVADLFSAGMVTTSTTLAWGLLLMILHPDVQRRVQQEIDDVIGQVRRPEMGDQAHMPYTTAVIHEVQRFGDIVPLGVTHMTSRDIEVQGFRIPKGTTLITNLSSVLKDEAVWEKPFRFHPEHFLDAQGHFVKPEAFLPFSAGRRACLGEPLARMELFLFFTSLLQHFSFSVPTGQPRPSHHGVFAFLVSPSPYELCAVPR

c1ccc2cc3c(ccc4ccccc43)cc2c1 [benzo[a]anthracene]
CYP enzyme activity
Conditions	CYP1A2	CYP2B6	CYP2C8	CYP2C9	CYP2C19	CYP2D6	CYP3A4
1 µM, treatment time 12 h	1.41	0.781	0.978	0.88	0.754	0.865	0.717
1 µM, treatment time 24 h	1.01	0.901	0.978	1	0.826	0.833	0.662
1 µM, treatment time 48 h	0.817	0.683	1.01	0.927	0.862	0.696	0.702
5 µM, treatment time 12 h	5.62	1.1	0.953	0.995	0.94	1.66	0.809
5 µM, treatment time 24 h	4.68	1.45	0.973	1.02	0.934	1.15	0.844
5 µM, treatment time 48 h	1.98	0.896	0.898	0.989	1.003	0.774	0.754
10 µM, treatment time 12 h	9.59	1.11	0.992	0.949	0.934	2.55	0.907
10 µM, treatment time 24 h	9.37	1.63	0.875	1.02	0.925	1.41	0.855
10 µM, treatment time 48 h	3.86	0.97	0.792	0.849	0.882	0.712	0.702

c1ccc2c(c1)cc1ccc3cccc4ccc2c1c34 [benzo[a]pyrene]
CYP enzyme activity
Conditions	CYP1A2	CYP2B6	CYP2C8	CYP2C9	CYP2C19	CYP2D6	CYP3A4
1 µM, treatment time 12 h	2.02	0.982	0.886	0.945	0.898	1.11	0.849
1 µM, treatment time 24 h	1.3	1.14	0.925	1	0.895	0.883	0.812
1 µM, treatment time 48 h	0.816	0.753	0.895	0.896	0.85	0.691	0.734
5 µM, treatment time 12 h	7.75	1.22	0.671	0.85	0.908	2.43	1.04
5 µM, treatment time 24 h	4.55	1.61	0.774	1.03	0.847	1.07	0.834
5 µM, treatment time 48 h	1.04	0.977	0.686	0.773	0.855	0.598	0.678
10 µM, treatment time 12 h	5.63	0.881	0.464	0.67	0.761	2.24	1.05
10 µM, treatment time 24 h	7.76	1.52	0.66	0.872	0.835	1.34	0.762
10 µM, treatment time 48 h	1.24	0.954	0.415	0.654	0.661	0.51	0.599
